Assay results taken from patent US11696913B2, “Prolonged ectoparasite-controlling agent for animal” (MITSUI CHEMICALS AGRO, INC., priority 2017, dated 2023).

Assays:
Ixodes ricinus = test: In vitro contact test with adult hard ticks (Ixodes ricinus); details: read-out: acaricidal activity
Method: (§1) In Vitro Contact Tests with Adult Hard Ticks
(§2) In vitro contact tests with ticks were conducted with adult males and females of Rhipicephalus sanguineus, Ixodes ricinus, or Dermacentor variabilis, or nymphs of Amblyomma americanum.
(§3) For the coating of the test vials, the test substance was dissolved and diluted in acetone p.a. to the desired concentration. The solution was then homogeneously applied to the inner wall and base of a glass vial by turning and rocking on an orbital shaker until complete evaporation of the solvent. For example, with a 900 ppm solution of test substance, an area-based dose of 5 μg/cm^2 was achieved.
(§4) After the solvent was completely evaporated, 5-10 adult ticks were put in each coated test vial, which was then sealed with a perforated plastic lid and incubated in a horizontal position in the dark at room temperature and ambient humidity (Rhipicephalus sanguineus) or in a climate-controlled cabinet (Ixodes ricinus, Dermacentor variabilis, Amblyomma americanum [21° C., 85% rel. hum.]). Acaricidal activity against the respective tick species was determined after 48 h. For this, ticks were collected to the base of the test vial by gentle knocking, and test vials were then incubated on a hotplate at 45-50° C. for no longer than 5 min. Ticks which remained motionless on the base of the test vial or moved uncoordinated without deliberately climbing up to avoid the heat were considered dead or moribund, respectively.
(§5) A substance was judged to have good acaricidal activity against the respective tick species when at least 80% of ticks were found dead or moribund at a dose of the substance of g/cm^2. An acaricidal activity of 100% means all ticks were dead or moribund. An acaricidal activity of 0% means none of the ticks was found dead or moribund.

Amblyomma americanum = test: In vitro contact test with hard ticks (Amblyomma americanum nymphs); details: read-out: acaricidal activity; for pest or weed control at 0.2 µg/cm2, 0.2 µg/cm2: dose 0.2 μg/cm^2, 48 h; for pest or weed control at 1 µg/cm2, 1 µg/cm2: dose 1 μg/cm^2, 48 h
Method: as §1, §2, §3, §4, §5

Ctenocephalides felis [1] = test: Ctenocephalides felis in-vitro feeding test with fleas (CTECFE oral); details: 48 hours, read-out: insecticidal feeding activity; for pest or weed control at 0.0064 ppm: dose 0.0064 ppm in citrated cattle blood; for pest or weed control at 0.16 ppm: dose 0.16 ppm in citrated cattle blood; for pest or weed control at 0.8 ppm: dose 0.8 ppm in citrated cattle blood; for pest or weed control at 4 ppm: dose 4 ppm in citrated cattle blood
Method: Ctenocephalides felis In-Vitro Feeding Test with Fleas (CTECFE Oral)
To prepare a test blood mixture for feeding fleas, the test substance was dissolved in dimethyl sulphoxide and diluted with citrated cattle blood to the desired concentration.
To assemble the test set-up, about 20 unfed adult male and female cat fleas
(Ctenocephalides felis) were placed in a chamber which was closed at the top and bottom with gauze. A metal cylinder was sealed at one end with parafilm membrane, placed with the sealed base onto the chamber, and filled with the test blood mixture, which could be imbibed by the fleas through the parafilm membrane. The assembled test set-up was maintained at about 37° C. After 48 hours, the insecticidal feeding activity against fleas was determined. 100% means that all of the fleas were killed; 0% means that none of the fleas was killed.

Ctenocephalides felis [2] = test: In vitro contact test with fleas; details: read-out: insecticidal activity; for pest or weed control at 0.04 µg/cm2, 0.04 µg/cm2: dose 0.04 μg/cm^2, dead or moribund fleas after 48 h; for pest or weed control at 0.2 µg/cm2, 0.2 µg/cm2: dose 0.2 μg/cm^2, dead or moribund fleas after 48 h; for pest or weed control at 1 µg/cm2, 1 µg/cm2: dose 1 μg/cm^2, dead or moribund fleas after 48 h
Method: In Vitro Contact Tests with Fleas
In vitro contact tests with fleas were conducted with adult male and female cat fleas (Ctenocephalides felis).
as §3, with “To coat” for “For the coating of”, “tubes,” for “vials,”, “tube” for “vial”
Upon complete evaporation of the solvent, 5-10 adult cat fleas (Ctenocephalides felis) were added to each coated tube, which was then sealed with a perforated plastic lid and incubated in a horizontal position at room temperature and ambient humidity. After 48 h, insecticidal activity against fleas was determined. For this, fleas were collected to the base of the tube by knocking the tube, and the tube was allowed to stand upright. Fleas which remained motionless at the base or moved in an uncoordinated manner were considered dead or moribund, respectively.
A substance was judged to have good insecticidal activity against Ctenocephalides felis when at least 80% of the fleas were found dead or moribund at a dose of the substance of μg/cm^2. 100% insecticidal activity means that all the fleas were found dead or moribund. 0% insecticidal activity means that no fleas were found dead or moribund.

Dermacentor variabilis = test: In vitro contact test with adult hard ticks (Dermacentor variabilis); details: read-out: acaricidal activity; for pest or weed control at 0.2 µg/cm2, 0.2 µg/cm2: dose 0.2 μg/cm^2, 48 h; for pest or weed control at 1 µg/cm2, 1 µg/cm2: dose 1 μg/cm^2, 48 h
Method: as §1, §2, §3, §4, §5

[3] = tested on: Rhipicephalus (Boophilus) microplus; test: In vitro injection test with Rhipicephalus (Boophilus) microplus (BOOPMI Inj); details: 168 h, laid fertile eggs after 7 days, read-out: acaricidal activity; for pest or weed control at 32 ng: dose 0.032 μg/animal injected; for pest or weed control at 0.00016 mg: dose 0.16 μg/animal injected; for pest or weed control at 0.0008 mg: dose 0.8 μg/animal injected
Method: In Vitro Injection Test with Rhipicephalus (Boophilus) Microplus (BOOPMI Inj)
To produce an appropriate mixture for injection, the test substance was dissolved and diluted in dimethyl sulphoxide to the desired concentration. 1 μl of the test mixture was injected into the abdomen of each of 5 engorged adult female cattle ticks (Rhipicephalus (Boophilus) microplus). The ticks were transferred into petri dishes and maintained in a climate-controlled room [28° C., 85% rel. hum.].
Acaricidal activity against cattle ticks was assessed after 7 days by assessment of laid fertile eggs. […] An acaricidal activity of 100% means that none of the ticks laid eggs or laid eggs were infertile; 0% means that the ticks laid eggs, and all the eggs were fertile.

Rhipicephalus sanguineus = test: In vitro contact test with adult hard ticks (Rhipicephalus sanguineus); details: read-out: acaricidal activity; for pest or weed control at 0.04 µg/cm2, 0.04 µg/cm2: dose 0.04 μg/cm^2, 48 h; for pest or weed control at 0.2 µg/cm2, 0.2 µg/cm2: dose 0.2 μg/cm^2, 48 h; for pest or weed control at 1 µg/cm2, 1 µg/cm2: dose 1 μg/cm^2, 48 h
Method: as §1, §2, §3, §4, §5

O=C(Nc1cccc(C(=O)Nc2c(Br)cc(C(F)(C(F)(F)F)C(F)(F)C(F)(F)F)cc2C(F)(F)F)c1F)c1ccc(F)cc1 (centres unmarked) [Compound 36]
100%: pest or weed control at 32 ng [3] | pest or weed control at 0.00016 mg [3] | pest or weed control at 0.0008 mg [3]
90%: pest or weed control at 0.2 µg/cm2, 0.2 µg/cm2 (Ixodes ricinus; dose 0.2 μg/cm^2, 48 h) | pest or weed control at 1 µg/cm2, 1 µg/cm2 (Ixodes ricinus; dose 1 μg/cm^2, 48 h) | pest or weed control at 5 µg/cm2, 5 µg/cm2 (Ixodes ricinus; dose 5 μg/cm^2, 48 h) | pest or weed control at 0.2 µg/cm2, 0.2 µg/cm2 (Amblyomma americanum) | pest or weed control at 1 µg/cm2, 1 µg/cm2 (Amblyomma americanum) | pest or weed control at 0.2 µg/cm2, 0.2 µg/cm2 (Dermacentor variabilis) | pest or weed control at 1 µg/cm2, 1 µg/cm2 (Dermacentor variabilis) | pest or weed control at 0.04 µg/cm2, 0.04 µg/cm2 (Rhipicephalus sanguineus) | pest or weed control at 0.2 µg/cm2, 0.2 µg/cm2 (Rhipicephalus sanguineus) | pest or weed control at 1 µg/cm2, 1 µg/cm2 (Rhipicephalus sanguineus)
95%: pest or weed control at 0.0064 ppm (Ctenocephalides felis [1]) | pest or weed control at 0.16 ppm (Ctenocephalides felis [1]) | pest or weed control at 0.8 ppm (Ctenocephalides felis [1]) | pest or weed control at 4 ppm (Ctenocephalides felis [1]) | pest or weed control at 0.04 µg/cm2, 0.04 µg/cm2 (Ctenocephalides felis [2]) | pest or weed control at 0.2 µg/cm2, 0.2 µg/cm2 (Ctenocephalides felis [2]) | pest or weed control at 1 µg/cm2, 1 µg/cm2 (Ctenocephalides felis [2])

CN(C(=O)c1ccc(F)nc1)c1cccc(C(=O)Nc2c(Br)cc(C(F)(C(F)(F)F)C(F)(F)F)cc2C(F)(F)F)c1F [Compound 21]
90%: pest or weed control at 0.2 µg/cm2, 0.2 µg/cm2 (Amblyomma americanum) | pest or weed control at 1 µg/cm2, 1 µg/cm2 (Amblyomma americanum) | pest or weed control at 0.2 µg/cm2, 0.2 µg/cm2 (Dermacentor variabilis) | pest or weed control at 1 µg/cm2, 1 µg/cm2 (Dermacentor variabilis) | pest or weed control at 0.04 µg/cm2, 0.04 µg/cm2 (Rhipicephalus sanguineus) | pest or weed control at 0.2 µg/cm2, 0.2 µg/cm2 (Rhipicephalus sanguineus) | pest or weed control at 1 µg/cm2, 1 µg/cm2 (Rhipicephalus sanguineus)
95%: pest or weed control at 0.8 ppm (Ctenocephalides felis [1]) | pest or weed control at 4 ppm (Ctenocephalides felis [1]) | pest or weed control at 0.04 µg/cm2, 0.04 µg/cm2 (Ctenocephalides felis [2]) | pest or weed control at 0.2 µg/cm2, 0.2 µg/cm2 (Ctenocephalides felis [2]) | pest or weed control at 1 µg/cm2, 1 µg/cm2 (Ctenocephalides felis [2])
100%: pest or weed control at 32 ng [3] | pest or weed control at 0.00016 mg [3] | pest or weed control at 0.0008 mg [3]

O=C(Nc1c(I)cc(C(F)(C(F)(F)F)C(F)(F)F)cc1C(F)(F)F)c1cccc(NC(=O)c2cc(F)c(F)cc2Cl)c1 [Compound 38]
90%: pest or weed control at 0.2 µg/cm2, 0.2 µg/cm2 (Amblyomma americanum) | pest or weed control at 1 µg/cm2, 1 µg/cm2 (Amblyomma americanum) | pest or weed control at 1 µg/cm2, 1 µg/cm2 (Dermacentor variabilis)
100%: pest or weed control at 0.00016 mg [3] | pest or weed control at 0.0008 mg [3]
95%: pest or weed control at 0.16 ppm (Ctenocephalides felis [1]) | pest or weed control at 0.8 ppm (Ctenocephalides felis [1]) | pest or weed control at 4 ppm (Ctenocephalides felis [1]) | pest or weed control at 0.2 µg/cm2, 0.2 µg/cm2 (Ctenocephalides felis [2]) | pest or weed control at 1 µg/cm2, 1 µg/cm2 (Ctenocephalides felis [2])

CN(C(=O)c1ccc(C#N)cc1)c1cccc(C(=O)Nc2c(I)cc(C(F)(C(F)(F)F)C(F)(F)C(F)(F)F)cc2C(F)(F)F)c1F (centres unmarked) [Compound 23]
90%: pest or weed control at 1 µg/cm2, 1 µg/cm2 (Amblyomma americanum) | pest or weed control at 0.04 µg/cm2, 0.04 µg/cm2 (Dermacentor variabilis; dose 0.04 μg/cm^2, 48 h) | pest or weed control at 0.2 µg/cm2, 0.2 µg/cm2 (Dermacentor variabilis) | pest or weed control at 1 µg/cm2, 1 µg/cm2 (Dermacentor variabilis) | pest or weed control at 1 µg/cm2, 1 µg/cm2 (Rhipicephalus sanguineus)
100%: pest or weed control at 6.4 ng ([3]; dose 0.0064 μg/animal injected) | pest or weed control at 32 ng [3] | pest or weed control at 0.00016 mg [3] | pest or weed control at 0.0008 mg [3]
95%: pest or weed control at 0.0064 ppm (Ctenocephalides felis [1]) | pest or weed control at 0.032 ppm (Ctenocephalides felis [1]; dose 0.032 ppm in citrated cattle blood) | pest or weed control at 0.16 ppm (Ctenocephalides felis [1]) | pest or weed control at 0.8 ppm (Ctenocephalides felis [1]) | pest or weed control at 4 ppm (Ctenocephalides felis [1]) | pest or weed control at 0.04 µg/cm2, 0.04 µg/cm2 (Ctenocephalides felis [2]) | pest or weed control at 0.2 µg/cm2, 0.2 µg/cm2 (Ctenocephalides felis [2]) | pest or weed control at 1 µg/cm2, 1 µg/cm2 (Ctenocephalides felis [2])
